According to patent US7057048B2, “Androgen receptor antagonists” (Warner Lambert Company LLC, priority 2003, dated 2006):

biological target: T1, androgen receptor (Homo sapiens, UniProt P10275); assay: AR Antagonist Cell Assay (MMTV-luciferase reporter, DHT-stimulated); format: cell-based; conditions: MDA-MB453-MMTV clone 54-19 cells, inhibition of induction by 100 pM DHT, 17 hr
T1 sequence (P10275 1-920 Q868H): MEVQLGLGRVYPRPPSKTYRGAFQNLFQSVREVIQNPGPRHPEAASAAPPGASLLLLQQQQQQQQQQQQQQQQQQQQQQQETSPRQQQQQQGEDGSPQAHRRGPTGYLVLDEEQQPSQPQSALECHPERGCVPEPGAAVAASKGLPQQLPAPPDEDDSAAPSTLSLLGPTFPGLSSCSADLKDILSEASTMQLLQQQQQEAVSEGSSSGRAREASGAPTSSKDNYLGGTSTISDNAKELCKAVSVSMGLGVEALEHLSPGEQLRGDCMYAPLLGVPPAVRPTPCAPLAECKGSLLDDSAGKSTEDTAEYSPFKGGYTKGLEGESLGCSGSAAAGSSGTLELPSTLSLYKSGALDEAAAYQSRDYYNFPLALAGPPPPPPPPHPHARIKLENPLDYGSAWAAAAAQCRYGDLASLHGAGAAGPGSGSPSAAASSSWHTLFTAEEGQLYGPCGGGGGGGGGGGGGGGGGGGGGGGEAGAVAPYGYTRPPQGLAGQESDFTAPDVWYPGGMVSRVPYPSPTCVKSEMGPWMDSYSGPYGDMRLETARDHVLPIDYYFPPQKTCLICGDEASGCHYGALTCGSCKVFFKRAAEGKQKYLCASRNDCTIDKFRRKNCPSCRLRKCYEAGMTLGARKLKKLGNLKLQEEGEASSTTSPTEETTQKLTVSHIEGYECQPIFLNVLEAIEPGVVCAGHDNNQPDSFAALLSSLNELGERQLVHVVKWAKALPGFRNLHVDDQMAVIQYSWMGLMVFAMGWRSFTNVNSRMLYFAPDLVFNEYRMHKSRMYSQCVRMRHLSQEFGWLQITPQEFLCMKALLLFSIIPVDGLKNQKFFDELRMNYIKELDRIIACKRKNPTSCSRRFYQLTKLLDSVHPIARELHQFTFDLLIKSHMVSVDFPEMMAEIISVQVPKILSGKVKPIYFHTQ
Procedure: The compounds ability to antagonize the effects of androgen on the androgen receptor were determined in the protocol described immediately below.
Experimental Procedure for AR Antagonist Cell Assay
Cell line: MDA-MB453-MMTV clone 54-19. This cell line is a stable transfected cell line with MDA-MB453 cell background (human breast tumor cell expressing high level of androgen receptor). A MMTV minimal promoter containing ARE was first cloned in front of a firefly luciferase reporter gene. Then the cascade was cloned into transfection vector pUV120puro. Electroporation method was used for transfecting MDA-MB-453 cell. Puromycin resistant stable cell line was selected.
Cell Culture Media and Reagents:
Culture medium: DMEM (high glucose, Gibco cat #: 11960-044), 10% FBS, and 1% L-glutamine
Plating medium: DMEM (phenol red free), 10% charcoal treated HyClone serum, 1% L-glutamine
Assay medium: DMEM (phenol red free), 1% charcoal treated HyClone serum, 1% L-glutamine, and 1% penicillin/streptomycin
3×luciferase buffer: 2% beta-mercaptoethanol, 0.6% ATP, 0.0135% luciferine in cell lysis buffer
• 1. Cells are maintained in culture medium, splitting cells when they reach 80–90% confluence • 2. To test compounds, 10,000 cells/well are plated to opaque 96 cell culture plate in 100 ul/well plating medium, culture for overnight at 37° C. in cell culture incubator • 3. Carefully remove plating medium, then add 80 ul/well of pre-warmed assay medium, add 10 ul/well testing compound (final concentration at 10 uM or 1 uM), incubate at 37° C. for 30 minutes • 4. Add 10 ul/well freshly prepared DHT (final concentration at 100 pM) to each well, incubate at 37° C. for 17 hr (overnight) • 5. Add 50 ul/well 3×luciferase buffer, incubate at room temperature for 5 minutes, then count on Luminometer
The fold induction over background by 100 pM DHT in the absence of testing compounds is standardized as 100% and experimental result is expressed as percentage of inhibition by testing compounds.

Compared with `O=c1cc(C(F)(F)F)c2cc(Cc3ccc(S(=O)(=O)N4CCN(CCOCCO)CC4)cc3)ccc2o1` [Example 42, 6-(4-{4-[2-(2-Hydroxyethoxy)ethyl]-piperazine-1-sulfonyl}benzyl)-4-trifluoromethylchromen-2-one], `O=c1cc(C(F)(F)F)c2cc(Cc3ccc(S(=O)(=O)N4CCN(CCO)CC4)cc3)ccc2o1` [Example 43, 6-{4-[4-(2-Hydroxyethyl)piperazine-1-sulfonyl]benzyl}-4-trifluoromethylchromen-2-one] is lower in IC50: greater than 10 µM for the first, 8.9 µM for the second.

First: O=c1cc(C(F)(F)F)c2cc(Cc3ccc(S(=O)(=O)N4CCCCC4CO)cc3)ccc2[nH]1 (stereo not drawn) [Example 7, 6-[4-(2-Hydroxymethylpiperidine-1-sulfonyl)benzyl]-4-trifluoromethyl-1H-quinolin-2-one]
Second: O=c1cc(C(F)(F)F)c2cc(Cc3ccc(S(=O)(=O)N4CCCCC4CO)cc3)ccc2o1 (stereo not drawn) [Example 37, 6-[4-(2-Hydroxymethyl-piperidine-1-sulfonyl)benzyl]-4-trifluoromethylchromen-2-one]
The IC50 of the first is 1.8-fold higher: 9.8 µM for the first, 5.3 µM for the second. The second is the more potent here.

`O=C(CN1CCN(S(=O)(=O)c2ccc(Cc3ccc4[nH]c(=O)cc(C(F)(F)F)c4c3)cc2)CC1)N1CCCC1` [Example 13, 6-{4-[4-(2-Oxo-2-pyrrolidin-1-ylethyl)piperazine-1-sulfonyl]benzyl}-4-trifluoromethyl-1H-quinolin-2-one] and `O=C(CN1CCN(S(=O)(=O)c2ccc(Cc3ccc4oc(=O)cc(C(F)(F)F)c4c3)cc2)CC1)N1CCCC1` [Example 47, 6-{4-[4-(2-Oxo-2-pyrrolidin-1-ylethyl)piperazine-1-sulfonyl]benzyl}-4-trifluoromethylchromen-2-one] cannot be ordered by IC50: greater than 10 µM for the first, greater than 10 µM for the second.

`CCN1CCN(S(=O)(=O)c2ccc(Cc3ccc4[nH]c(=O)cc(C(F)(F)F)c4c3)cc2)CC1` [Example 8, 6-[4-(4-Ethylpiperazine-1-sulfonyl)benzyl]-4-trifluoromethyl-1H-quinolin-2-one] and `O=c1cc(C(F)(F)F)c2cc(Cc3ccc(S(=O)(=O)N4CCN(CCO)CC4)cc3)ccc2[nH]1` [Example 10, 6-{4-[4-(2-Hydroxyethyl)piperazine-1-sulfonyl]benzyl}-4-trifluoromethyl-1H-quinolin-2-one] cannot be ordered by IC50: greater than 10 µM for the first, greater than 10 µM for the second.

Going from `O=c1cc(C(F)(F)F)c2cc(Cc3ccc(S(=O)(=O)N4CCCCC4CCO)cc3)ccc2o1` (stereo not drawn) [Example 51, 6-{4-[2-(2-Hydroxyethyl)piperidine-1-sulfonyl]benzyl}-4-trifluoromethylchromen-2-one] to `O=c1cc(C(F)(F)F)c2cc(Cc3ccc(S(=O)(=O)N4CCCC4CO)cc3)ccc2o1` (stereo not drawn) [Example 52, 6-[4-(2-Hydroxymethyl-pyrrolidine-1-sulfonyl)benzyl]-4-trifluoromethylchromen-2-one], the IC50 falls from greater than 10 µM to 3.4 µM.

Going from `O=c1cc(C(F)(F)F)c2cc(Cc3ccc(S(=O)(=O)N4CCCC5CCCCC54)cc3)ccc2[nH]1` (stereo not drawn) [Example 19, 6-[4-(Octahydroquinoline-1-sulfonyl)benzyl]-4-trifluoromethyl-1H-quinolin-2-one] to `O=c1cc(C(F)(F)F)c2cc(Cc3ccc(S(=O)(=O)N4CCCC5CCCCC54)cc3)ccc2o1` (stereo not drawn) [Example 53, 6-[4-(Octahydroquinoline-1-sulfonyl)benzyl]-4-trifluoromethylchromen-2-one], the IC50 falls from greater than 10 µM to 4.2 µM. The second is the more potent here.

`CC1CCN(S(=O)(=O)c2ccc(Cc3ccc4[nH]c(=O)cc(C(F)(F)F)c4c3)cc2)CC1` [Example 15, 6-[4-(4-Methylpiperidine-1-sulfonyl)benzyl]-4-trifluoromethyl-1H-quinolin-2-one] and `O=c1cc(C(F)(F)F)c2cc(Cc3ccc(S(=O)(=O)N4CCCCC4)cc3)ccc2[nH]1` [Example 23, 6-[4-(Piperidine-1-sulfonyl)benzyl]-4-trifluoromethyl-1H-quinolin-2-one] cannot be ordered by IC50: greater than 10 µM for the first, greater than 10 µM for the second.

Going from `O=c1cc(C(F)(F)F)c2cc(Cc3ccc(S(=O)(=O)N4Cc5ccccc5C4)cc3)ccc2o1` [Example 34, 6-[4-(1,3-Dihydroisoindole-2-sulfonyl)benzyl]-4-trifluoromethylchromen-2-one] to `COc1cc2c(cc1OC)CN(S(=O)(=O)c1ccc(Cc3ccc4oc(=O)cc(C(F)(F)F)c4c3)cc1)CC2` [Example 35, 6-[4-(6,7-Dimethoxy-3,4-dihydro-1H-isoquinoline-2-sulfonyl)benzyl]-4-trifluoromethylchromen-2-one], the IC50 falls from 4.5 µM to 1.2 µM (3.8-fold). The second is the more potent here.

`O=c1cc(C(F)(F)F)c2cc(Cc3ccc(S(=O)(=O)N4CCC(N5CCCC5)CC4)cc3)ccc2o1` [Example 30, 6-[4-(4-Pyrrolidin-1-ylpiperidine-1-sulfonyl)benzyl]-4-trifluoromethylchromen-2-one] and `O=c1cc(C(F)(F)F)c2cc(Cc3ccc(S(=O)(=O)N4CCCCCCC4)cc3)ccc2o1` [Example 63, 6-[4-(Azocane-1-sulfonyl)benzyl]-4-trifluoromethylchromen-2-one] cannot be ordered by IC50: greater than 10 µM for the first, greater than 10 µM for the second.

First: CC(C)N(CCN1CCN(S(=O)(=O)c2ccc(Cc3ccc4oc(=O)cc(C(F)(F)F)c4c3)cc2)CC1)C(C)C [Example 44, 6-{4-[4-(2-Diisopropylamino-ethyl)piperazine-1-sulfonyl]benzyl}-4-trifluoromethylchromen-2-one]
Second: O=c1cc(C(F)(F)F)c2cc(Cc3ccc(S(=O)(=O)N4CCN(CCCN5CCCCC5)CC4)cc3)ccc2o1 [Example 38, 6-{4-[4-(3-Piperidin-1-ylpropyl)piperazine-1-sulfonyl]benzyl}-4-trifluoromethylchromen-2-one]
The IC50 of the first is lower: 5.2 µM for the first, greater than 10 µM for the second. The first is the more potent here.

Going from `COC(=O)[C@@H]1CCCN1S(=O)(=O)c1ccc(Cc2ccc3[nH]c(=O)cc(C(F)(F)F)c3c2)cc1` [Example 9, 1-[4-(2-Oxo-4-trifluoromethyl-1,2-dihydroquinolin-6-ylmethyl)benzenesulfonyl]-pyrrolidine-2-carboxylicacid methyl ester] to `O=c1cc(C(F)(F)F)c2cc(Cc3ccc(S(=O)(=O)N4CCSC4)cc3)ccc2[nH]1` [Example 12, 6-[4-(Thiazolidine-3-sulfonyl)benzyl]-4-trifluoromethyl-1H-quinolin-2-one], the IC50 rises from 5.4 µM to greater than 10 µM. The first is the more potent here.

Going from `O=c1cc(C(F)(F)F)c2cc(Cc3ccc(S(=O)(=O)N4CCCCC4c4cccnc4)cc3)ccc2[nH]1` (stereo not drawn) [Example 14, 6-[4-(3,4,5,6-Tetrahydro-2H-[2,3′]bipyridinyl-1-sulfonyl)benzyl]-4-trifluoromethyl-1H-quinolin-2-one] to `COc1ccc(N2CCN(S(=O)(=O)c3ccc(Cc4ccc5[nH]c(=O)cc(C(F)(F)F)c5c4)cc3)CC2C)cc1` (stereo not drawn) [Example 3, 6-{4-[4-(4-Methoxyphenyl)-3-methylpiperazine-1-sulfonyl]benzyl}-4-trifluoromethyl-1H-quinolin-2-one], the IC50 rises from 4.7 µM to greater than 10 µM.

Going from `O=c1cc(C(F)(F)F)c2cc(Cc3ccc(S(=O)(=O)N4CCC5(CC4)OCCO5)cc3)ccc2o1` [Example 36, 6-[4-(1,4-Dioxa-8-azaspiro[4.5]decane-8-sulfonyl)benzyl]-4-trifluoromethylchromen-2-one] to `CC1CN(S(=O)(=O)c2ccc(Cc3ccc4oc(=O)cc(C(F)(F)F)c4c3)cc2)CC(C)O1` (stereo not drawn) [Example 60, 6-[4-(2,6-Dimethylmorpholine-4-sulfonyl)benzyl]-4-trifluoromethylchromen-2-one], the IC50 falls from 7.2 µM to 0.52 µM (14-fold). The second is the more potent here.

`CCOC(=O)C1CCCN(S(=O)(=O)c2ccc(Cc3ccc4oc(=O)cc(C(F)(F)F)c4c3)cc2)C1` (stereo not drawn) [Example 28, 1-[4-(2-Oxo-4-trifluoromethyl-2H-chromen-6-ylmethyl)-benzenesulfonyl]piperidine-3-carboxylic acid ethylester] gave an IC50 greater than 10 µM.
